# How the values were obtained:
# [1] = male, Long-Evans, rat, in vivo
# Description: (§1) Young adult male Long-Evans rats, 240-280 gm, were studied. Rats were anesthetized (Ketamine and Xylazine) and physiological parameters including temperature and blood gases were maintained within appropriate physiological ranges. With the head fixed in a stereotaxic frame, a 6-mm circular craniectomy was created abutting the sagittal and lambdoidal sutures. A posterior location was chosen to emphasize damage to underlying hippocampus (Vink et al., 2001; Floyd et al., 2002). […] Sham controls underwent craniectomy without percussion.
# [2] = loading dose 10 μg/kg i.p. plus 200 ng/hr s.q.; cited from earlier work
# [3] = Testing of glibenclamide doses for effect on serum glucose in rats; format: in vivo, rat; settings: dose1-dose4 (loading 2.5-20 μg/kg i.p., infusion 75-600 ng/hr s.q.); uninjured, stroke and SCI rats
# [4] = Tail tip bleeding time in uninjured rats; format: in vivo, rat; settings: for effect on bleeding time: same infusion dose
# Experimental: Bleeding times were measured using tail tip bleeding as described (Lorrain et al., 2003).
# [5] = test system: rats with spinal cord injury (SCI); settings: rodent model of SCI (Simard et al., 2007); cited from earlier work
# rats with percussion-TBI = test: Percussion-TBI rats: lesion size and hippocampal histology; format: in vivo, rat; settings: 7 days post-TBI
# Description: as §1
# [6] = in humans; cited from earlier work
# [7] = test system: rats with spinal cord injury (SCI); test: Rat cervical SCI model: histology, capillaries and lesion size; format: in vivo
# Experimental: SCI injury model. This study was performed in accordance with the guidelines of the Institutional Animal Care and Use Committee. Adult female Long-Evans rats (275-350 gm) were anesthetized (Ketamine, 60 mg/kg plus Xylazine, 7.5 mg/kg, i.p.). The dura at C4-5 was exposed via a left hemilaminectomy. A hemi-cervical spinal cord contusion was created using a blunt force impactor (1.3-mm impactor head driven by a 10 gm weight dropped vertically 25 mm) (Soblo sky et al., 2001; Gensel et al., 2006). After SCI, animals were given 10 ml of glucose-free normal saline s.q. Rectal temperature was maintained at ˜37° C. using a servo-controlled warming blanket. Blood gases and serum glucose 10-15 min post-SCI were: pO2, 95±6 mm Hg; pCO2, 46±3 mm Hg; pH, 7.33±0.01; glucose 258±17 mg/dl in controls and pO2, 96±7 mm Hg; pCO2, 45±2 mm Hg; pH, 7.37±0.01; glucose 242±14 mg/dl in glibenclamide-treated animals.
# Drug delivery. […] During the course of the project, slightly different formulations of drug were used, with the best results obtained using stock solutions made by placing 50 mg (or 25 mg) of drug into 10 ml DMSO, and infusion solutions made by placing 400 μl (or 800 μl) stock into 4.6 ml (or 4.2 ml) unbuffered saline (0.9% NaCl) and adjusting the pH to ˜8.5 using 0.1 N NaOH.
# Lesion size. At 7 d post-SCI, cords were paraffin sectioned and stained with H&E. Lesion volumes were calculated from lesion areas measured on serial sections every 250 μm.
# Immunohistochemistry. Cryosections were immunolabeled (Chen et al., 2003; Simard et al., 2006) using primary antibodies directed against SUR1 (Santa Cruz, C-16; 1:200; 1 h at RT, 48 h at 4° C.), SUR2 (Santa Cruz, H-80; 1:200; 1 h at RT, 48 h at 4° C.), GFAP (Sigma, C-9205; 1:500), and vimentin (Sigma, monoclonal CY3 conjugated; 1:100). Quantitative immunofluorescence was performed as described (Gerzanich et al., 2003).
# [8] = cited from earlier work
smiles,measurement,setting,value
COc1ccc(Cl)cc1C(=O)NCCc1ccc(S(=O)(=O)NC(=O)NC2CCCCC2)cc1 [glibenclamide],time required to achieve 90% steady-state serum drug levels,[1],3 h
same,effect on serum glucose,[2],minimal effects
same,estimated serum concentration,[2],< 10 nM
same,effect of doses on serum glucose,[3],"only the highest are hypoglycemogenic, but only mildly so"
same,tail bleeding time,"[4]; n=3-5, P=0.6",21.5 ± 3.1 s
same,effect on bleeding time,[4],no effect
same,effect on bleeding time,[4]; listed as Glibenclamide,did not affect
same,reduction in lesion volume after SCI,[5],3 fold
same,hippocampus on Nissl stained sections,rats with percussion-TBI,"sparing of hippocampus, including sparing of neurons in CA1, CA3 and dentate gyrus regions"
same,lesion area on coronal sections at epicenter of injury,"rats with percussion-TBI; control 8.2±1.3, P=0.025",4.4±0.8 mm^2
same,volume of distribution,[6],0.2 L/kg
same,"lesion, reactive gliosis and myelin (GFAP and myelin labeling)","[7]; 24 h post-SCI, vs controls","smaller lesions, less reactive gliosis and better myelin preservation"
same,"lesion volume, reduction compared to controls",[7]; 7 d post-SCI,3 fold
same,vimentin(+) capillaries in region of injury,"[7]; post-SCI, vs controls",the capillaries were elongated and appeared more normal
same,pKa,[8],6.3

# — US20110263478A1, “SUR1 INHIBITORS FOR THERAPY” (priority 2008, published 2011)
